Patent US20260091147A1, “METHOD FOR DETECTING INNATE IMMUNE ACTION IN VIVO USING GPR84-PET” (The Board of Trustees of the Leland Standford Junior …, priority 2023, published 2026)

Assays:
GPR84 [1] = target: T1, GPR84 (Mus musculus, UniProt Q8CIM5); assay: Dynamic PET/CT of brain in LPS-induced systemic inflammation vs saline, with or without GLPG1205 block; format: in vivo; settings: LPS 10 mg/kg, 24 h
T1 construct: tissue Jackson Laboratories; host or cells: female C57BL/6J mice (LPS, saline, EAE or naive): brain, spinal cord and peripheral organs
Description: (§1) To determine KD of GLPG38, a competitive binding assay was performed using a membrane preparation from cells expressing GPR84-Gi in addition to [^3H]G9543, a known GPR84 antagonist. [^11C]GLPG38 was then radiosynthesized via [^11C]methylation of desmethyl precursor using [^11C]methyl iodide. […] Dynamic 60 min PET/CT imaging was performed 24 hr following LPS-administration using [^11C]GLPG38. Subsequently, mice were perfused with PBS to remove blood, and radioactive signal was assessed in CNS and peripheral tissues via gamma counting. Ex vivo autoradiography of sagittal mouse brain sections was conducted to obtain high resolution images of [^11C]GLPG38 binding. To investigate alterations in GPR84 mRNA expression, quantitative polymerase-chain reaction was performed using mouse brain tissue and human monocyte-derived macrophage cells stimulated with LPS 24 hr prior to RNA extraction.
The count densities were averaged for all volumes of interest at each time point to obtain a time-activity curve (TAC). The TACs were normalized to injected dose, as measured by a CRC-15 PET dose calibrator (Capintec Inc.), and expressed as % injected dose per gram (% ID/g), assuming 1 g/mL. CT was performed in GNEXT depth of interaction (DOI) dual-layer detector system. Scintica VivoQuant software was used to visualize radiotracer uptake and define the 3D volumes of interest. 3D maximum intensity projection (MIP) PET/CT images were created using IRW software.
A range of doses (0.65, 0.75, and 0.90 mg/kg) of GLPG1205 were used to investigate whether the blocking was dose-dependent. […] GLPG1205 was injected intra-venously 10 min prior to radiotracer injection (n=4).

GPR84 [2] = target: T1, GPR84; assay: Ex vivo biodistribution (gamma counting) of GPR84 tracer in LPS- vs saline-treated mice; settings: LPS 10 mg/kg
Description: FIGS. 11A-11B show ex vivo biodistribution and autoradiography. […] At 20 min postinjection, animals were perfused with saline and tissues were collected, weighed, and gamma-counted. […] Statistical analysis was performed using “Unpaired t test with Welch correction”, *=P<0.05. […] Cb=cerebellum, Ctx=cortex, Str=striatum, H=hippocampus, Mb=midbrain, Ob=olfactory bulb, and BS=brain stem.
as §1

GPR84 [3] = target: T1, GPR84; assay: Ex vivo autoradiography of brain sections from LPS-treated mice; format: in vivo
Description: To determine KD of GLPG38, a competitive binding assay was performed using a membrane preparation from cells expressing GPR84-Gi in addition to [^3H]G9543, a known GPR84 antagonist. [^11C]GLPG38 was then radiosynthesized via [^11C]methylation of desmethyl precursor using [^11C]methyl iodide. Binding specificity of [^11C]GLPG38 was assessed using human GPR84-stably-expressing human embryonic kidney cells (HEK-293) versus control HEK-293 cells. For animal studies, sepsis was induced in female C57BL/6J mice via intraperitoneal injection of lipopolysaccharide (LPS, 10 mg/kg); vehicle-treated mice were injected with saline alone. Dynamic 60 min PET/CT imaging was performed 24 hr following LPS-administration using [^11C]GLPG38. Subsequently, mice were perfused with PBS to remove blood, and radioactive signal was assessed in CNS and peripheral tissues via gamma counting. Ex vivo autoradiography of sagittal mouse brain sections was conducted to obtain high resolution images of [^11C]GLPG38 binding. To investigate alterations in GPR84 mRNA expression, quantitative polymerase-chain reaction was performed using mouse brain tissue and human monocyte-derived macrophage cells stimulated with LPS 24 hr prior to RNA extraction.
Ex vivo Audoradiography Confirms ^11C-MGX-10S Specificity.

[4] = test system: GPR84-positive immune cells; assay: PET/CT in B16F1 melanoma brain metastasis model, with or without anti-PD-1 and anti-CTLA-4; format: in vivo, mouse; settings: anti-PD-1 and anti-CTLA-4, day 9
Description: Six-to-eight-week-old female C57BL/6 mice were injected subcutaneously with 0.25×10^6 B16F1 melanoma cells on the right flank to generate extracranial tumors. After two days of extracranial tumor inoculation, 5×10^3 B16F1 melanoma cells were stereotactically injected into the striatum. Five days after intracranial tumor inoculation, mice were randomized into treatment (n=4) vs no treatment (n=4) groups based on the intracranial bioluminescence signals and monitored daily starting on day 5 for extracranial tumor volume changes. On days 5, 7 and 9 post-intracranial tumor inoculation, mice in the treatment group were treated with anti-PD-1 and anti-CTLA-4 (200 μg via intraperitoneal injection). T2-weighted MRI (Bruker) with a CryoProbe was performed on day 9 after intracranial tumor inoculation to identify brain tumor region of interest. Following MRI, mice underwent PET/CT imaging on the GNEXT PET/CT (Sofie). 100-125 μCi of [^18F]MGX-110S was injected for a 10-min static PET scan followed by CT. Mice were then perfused and organs of interest were dissected and analyzed via gamma counting. Region of interest analysis of the PET images was performed using a 3D volume drawing mode around the intracranial and extracranial tumors (Inveon Research Workspace).

T1 sequence (Q8CIM5 whole entry): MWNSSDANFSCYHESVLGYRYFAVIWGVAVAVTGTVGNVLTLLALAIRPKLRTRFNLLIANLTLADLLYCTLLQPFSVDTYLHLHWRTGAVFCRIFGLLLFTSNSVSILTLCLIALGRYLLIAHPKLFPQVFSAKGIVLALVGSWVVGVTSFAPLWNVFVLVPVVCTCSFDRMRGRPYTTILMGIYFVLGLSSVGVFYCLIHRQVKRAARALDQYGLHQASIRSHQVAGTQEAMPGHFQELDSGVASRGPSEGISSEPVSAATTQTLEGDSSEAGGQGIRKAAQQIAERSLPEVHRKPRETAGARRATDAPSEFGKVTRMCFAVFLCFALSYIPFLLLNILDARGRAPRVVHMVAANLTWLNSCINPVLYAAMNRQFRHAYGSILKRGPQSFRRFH

Structure (SMILES) | brain PET signal in LPS-treated vs saline-treated mice at 40-60 min post injection (GPR84 [1]) | gamma counting signal in brain, LPS-injected vs vehicle mice (GPR84 [2]; p=0.0023) | gamma counting tracer binding in adipose tissue, LPS vs vehicle mice (GPR84 [2]; p=0.007) | tracer binding in LPS brain sections after pre-blocking with GLPG1205 (GPR84 [3]; GLPG1205 5 mg/kg ([11C]GLPG38) or 1 mg/kg (11C-MGX-10S)) | tracer binding in brain sections, LPS-treated vs vehicle mice (GPR84 [3]; mouse, in vivo) | PET signal in intracranial tumor, untreated vs immunotherapy-treated mouse [4]
Cc1cc2c(cc1O[11CH3])CCn1c-2c(C)c(OC[C@@H]2COCCO2)cc1=O [[^11C]GLPG38] | significantly elevated | increased signal in the brain | significant increase in tracer binding | substantial reduction | marked increase | 
O=c1nc(OC[C@@H]2COCCO2)cc2n1CCc1cc([18F])ccc1-2 [^18F-MGX-110S] |  |  |  |  |  | significantly elevated signal
